The results in this text go back to patent US12398141B2 (SHANGHAI SYNERGY PHARMACEUTICAL SCIENCES CO., LTD, priority 2019, dated 2025).

One assay concerns the target hERG potassium channel (Homo sapiens (Human), UniProt Q12809). Description: hERG potassium channel current, manual patch clamp. It is filed as cell-based. Particulars: HEK293 cells overexpressing hERG potassium channel, whole-cell patch clamp; read-out: IC50 (μM) inhibiting hERG current. Here is the method:
Effects of compounds H07, H12, H14, H25, H30, H39 and H44 on hERG potassium channel were detected by applying electrophysiological manual patch clamp to study an initial cardiac safety of the compounds of the invention.
Test compounds were dissolved in dimethyl sulfoxide to prepare mother solutions (10 mM, 3.3 mM, 1.1 mM and 0.37 mM). Next an extracellular fluid was used for secondary dilution so that the test solution had final concentrations of 30 μM, 10 μM, 3.3 μM, 1.1 μM and 0.37 μM.
Extracellular fluids: 130 mM sodium chloride, 4 mM potassium chloride, 1.8 mM calcium chloride, 1 mM magnesium chloride, 10 mM glucose, 10 mM 4-hydroxyethylpiperazine ethane sulfonic acid (pH 7.4)
Intracellular fluid: 130 mM potassium chloride, 1 mM magnesium chloride, 5 mM ethylene glycol diethyl ether diamine tetraacetic acid, 5 mM triphosadenine and 10 mM 4-hydroxyethylpiperazine ethane sulfonic acid (pH7.2)
Compositions of a cell culture medium: Dulbecco's modified eagle medium (Grand Turk Island Biotechnology Company, 11330032), 15% fetal calf serum (Sigma, A15-101, USA), 1% penicillin-streptomycin (Biowest, L0022-100).
HEK293 cells overexpressing hERG potassium channel (from Dr. Mohamed Boutjdir's laboratory, School of Medicine, New York University—PharmaCore Labs, Inc.) were incubated in a medium consisting of Dulbecco's modified eagle medium/15% fetal calf serum/1% penicillin-streptomycin in a 5% CO2 incubator at 37° C. In the test, the cells were transferred to a cell bath embedded into a inverted microscope platform, and extracellular fluid was perfused. After stabilization for 5 minutes, the cells were precipitated and then the test could start. Membrane currents were recorded by using HEKA EPC-10 patch clamp amplifier and […] acquisition system (HEKA Instrument Co., Ltd., D-67466 Lambrcht, Palatinate, Germany). All tests were completed at room temperature (22-24° C.). P-97 microelectrode puller (Sutter Instrument Company, Novato, […] 94949) was used to straighten the electrodes (BF150-110-10). The inner diameter of the electrode was 1-1.5 mm, and the water resistance after internal liquid filling was 2-4 MΩ.
Tests were carried out in whole-cell recording mode, with current values recorded according to the electrophysiological stimulation protocol below. First, the membrane voltage was clamped at −80 mV, and the cells were stimulated with +20 mV for two seconds to activate hERG potassium channel, which was then repolarized to −50 mV for five seconds, producing an outward tail current with a stimulation frequency of every 15 seconds. The current value was a peak value of the tail current. In the test, the channel current was recorded in the whole-cell recording mode. First, extracellular fluid (about 2 ml per minute) was perfused and recorded continuously, and then the current was allowed to stabilize (current decay (run-down) was less than 5% within 5 minutes). At this time, the peak value of the tail current was the control current value. Subsequently, the extracellular fluid containing the drug to be tested was perfused and recorded continuously until the inhibiting effect of drug on hERG current reached a stable state, at which time the peak value of the tail current was the current value after adding drugs. After a stable situation was achieved, if hERG current recovered after perfusing and washing with extracellular fluid, perfusion could be continued to test other concentrations or drugs. The solution containing the drugs to be tested was perfused in descending order of concentration and the current values were recorded. […] V2X60 (HEKA Instrument Co., Ltd., D-67466 Lambrcht, Palatinate, Germany) was used to collect data. ORANGE 8.5 (ORANGE Laboratory Company, Northampton, UK) software was used for the analysis and statistics.
(Block of hERG is tested as a sign of cardiac risk.)

Another assay concerns TF-1 cell. Nature of the assay: TF-1 cell proliferation test. The class given is cell-based. The following applies: Homo sapiens, 72 h.
Another assay addresses JAK3 (Homo sapiens (Human), UniProt P52333). Description: JAK3 LANCE Ultra kinase assay. The following applies: 4 uM ATP. The class given is biochemical. Background: In TR-FRET formats the signal depends on donor and acceptor labels being close together.
A further assay addresses JAK1 (Homo sapiens (Human), UniProt P23458). Nature of the assay: JAK1 LANCE Ultra kinase assay. It is filed as biochemical. Particulars: for IC50: 38 uM ATP; for JAK2/JAK1: ratio of IC50 JAK2 to IC50 JAK1. The method in brief: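 JAK1 preincubated with compound 10 min at room temperature, then ULight-JAK-1 peptide/ATP added for 90 min at room temperature; stopped with EDTA, Eu-W1024 anti-phosphotyrosine TR-FRET read after 60 min. Inhibition normalised to DMSO and blank wells; IC50 from curve fit.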

A further assay deals with JAK2 (Homo sapiens (Human), UniProt O60674). Nature of the assay: JAK2 LANCE Ultra kinase assay. It is filed as biochemical. Particulars: 12 uM ATP.

Each structure is given as a SMILES string. Some results are limits rather than exact numbers.

Chain of JAK2 (O60674 whole entry): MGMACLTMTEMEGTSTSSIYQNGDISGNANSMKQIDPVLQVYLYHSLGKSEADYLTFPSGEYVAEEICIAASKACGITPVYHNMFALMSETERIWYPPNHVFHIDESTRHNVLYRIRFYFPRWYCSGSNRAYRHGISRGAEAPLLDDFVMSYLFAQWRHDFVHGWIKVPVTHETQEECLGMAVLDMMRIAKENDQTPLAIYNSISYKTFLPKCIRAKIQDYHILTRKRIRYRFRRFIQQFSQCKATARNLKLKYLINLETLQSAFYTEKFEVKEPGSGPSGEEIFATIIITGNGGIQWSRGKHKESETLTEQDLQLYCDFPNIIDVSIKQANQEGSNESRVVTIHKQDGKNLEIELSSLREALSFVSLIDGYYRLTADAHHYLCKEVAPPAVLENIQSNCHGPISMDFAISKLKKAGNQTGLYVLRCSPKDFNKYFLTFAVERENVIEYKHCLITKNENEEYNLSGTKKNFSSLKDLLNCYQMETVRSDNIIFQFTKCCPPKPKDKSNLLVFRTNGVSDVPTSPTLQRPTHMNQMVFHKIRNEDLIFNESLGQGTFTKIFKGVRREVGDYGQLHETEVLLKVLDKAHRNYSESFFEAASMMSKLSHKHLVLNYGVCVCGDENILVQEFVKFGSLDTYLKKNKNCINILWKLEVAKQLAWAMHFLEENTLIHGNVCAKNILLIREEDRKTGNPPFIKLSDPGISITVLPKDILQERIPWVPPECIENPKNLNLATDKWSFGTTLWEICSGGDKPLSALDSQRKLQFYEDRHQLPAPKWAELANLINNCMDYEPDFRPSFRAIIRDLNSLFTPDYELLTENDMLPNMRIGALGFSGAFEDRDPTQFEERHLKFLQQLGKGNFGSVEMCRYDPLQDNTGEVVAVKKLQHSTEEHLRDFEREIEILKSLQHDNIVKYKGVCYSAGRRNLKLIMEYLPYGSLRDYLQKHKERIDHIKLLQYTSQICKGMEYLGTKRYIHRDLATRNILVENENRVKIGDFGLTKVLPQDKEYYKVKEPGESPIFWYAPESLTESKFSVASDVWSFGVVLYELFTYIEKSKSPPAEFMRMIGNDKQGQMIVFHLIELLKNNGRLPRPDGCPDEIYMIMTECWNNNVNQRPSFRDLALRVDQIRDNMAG
Chain of hERG potassium channel (Q12809 whole entry): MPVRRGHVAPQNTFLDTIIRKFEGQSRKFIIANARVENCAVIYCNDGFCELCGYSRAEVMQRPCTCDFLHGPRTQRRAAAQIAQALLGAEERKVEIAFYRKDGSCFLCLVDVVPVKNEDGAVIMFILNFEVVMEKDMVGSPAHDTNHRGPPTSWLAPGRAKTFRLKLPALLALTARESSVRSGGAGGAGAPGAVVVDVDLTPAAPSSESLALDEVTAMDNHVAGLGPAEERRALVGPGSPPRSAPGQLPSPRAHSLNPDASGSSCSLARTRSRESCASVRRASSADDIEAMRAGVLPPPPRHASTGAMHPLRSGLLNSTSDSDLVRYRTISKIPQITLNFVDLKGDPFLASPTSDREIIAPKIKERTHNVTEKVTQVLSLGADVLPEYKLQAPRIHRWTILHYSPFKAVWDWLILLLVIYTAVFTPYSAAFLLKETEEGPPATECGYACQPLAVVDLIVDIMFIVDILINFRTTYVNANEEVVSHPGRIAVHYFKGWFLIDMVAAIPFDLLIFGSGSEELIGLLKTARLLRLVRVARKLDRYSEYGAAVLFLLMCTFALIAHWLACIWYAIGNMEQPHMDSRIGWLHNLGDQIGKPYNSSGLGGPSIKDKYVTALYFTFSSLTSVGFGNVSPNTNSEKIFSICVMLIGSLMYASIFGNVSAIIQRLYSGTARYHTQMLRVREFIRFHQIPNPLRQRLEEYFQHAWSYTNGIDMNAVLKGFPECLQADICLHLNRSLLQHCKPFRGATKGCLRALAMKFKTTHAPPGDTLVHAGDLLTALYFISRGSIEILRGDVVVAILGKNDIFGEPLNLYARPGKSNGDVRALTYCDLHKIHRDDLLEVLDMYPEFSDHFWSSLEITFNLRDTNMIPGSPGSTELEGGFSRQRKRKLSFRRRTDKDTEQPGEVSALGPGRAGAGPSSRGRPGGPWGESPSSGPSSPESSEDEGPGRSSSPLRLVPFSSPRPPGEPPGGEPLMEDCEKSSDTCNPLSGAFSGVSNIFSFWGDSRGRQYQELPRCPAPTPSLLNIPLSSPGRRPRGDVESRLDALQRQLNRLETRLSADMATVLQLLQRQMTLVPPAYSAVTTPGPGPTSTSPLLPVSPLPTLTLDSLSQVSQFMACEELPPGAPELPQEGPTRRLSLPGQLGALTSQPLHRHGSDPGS
Chain of JAK3 (P52333 whole entry): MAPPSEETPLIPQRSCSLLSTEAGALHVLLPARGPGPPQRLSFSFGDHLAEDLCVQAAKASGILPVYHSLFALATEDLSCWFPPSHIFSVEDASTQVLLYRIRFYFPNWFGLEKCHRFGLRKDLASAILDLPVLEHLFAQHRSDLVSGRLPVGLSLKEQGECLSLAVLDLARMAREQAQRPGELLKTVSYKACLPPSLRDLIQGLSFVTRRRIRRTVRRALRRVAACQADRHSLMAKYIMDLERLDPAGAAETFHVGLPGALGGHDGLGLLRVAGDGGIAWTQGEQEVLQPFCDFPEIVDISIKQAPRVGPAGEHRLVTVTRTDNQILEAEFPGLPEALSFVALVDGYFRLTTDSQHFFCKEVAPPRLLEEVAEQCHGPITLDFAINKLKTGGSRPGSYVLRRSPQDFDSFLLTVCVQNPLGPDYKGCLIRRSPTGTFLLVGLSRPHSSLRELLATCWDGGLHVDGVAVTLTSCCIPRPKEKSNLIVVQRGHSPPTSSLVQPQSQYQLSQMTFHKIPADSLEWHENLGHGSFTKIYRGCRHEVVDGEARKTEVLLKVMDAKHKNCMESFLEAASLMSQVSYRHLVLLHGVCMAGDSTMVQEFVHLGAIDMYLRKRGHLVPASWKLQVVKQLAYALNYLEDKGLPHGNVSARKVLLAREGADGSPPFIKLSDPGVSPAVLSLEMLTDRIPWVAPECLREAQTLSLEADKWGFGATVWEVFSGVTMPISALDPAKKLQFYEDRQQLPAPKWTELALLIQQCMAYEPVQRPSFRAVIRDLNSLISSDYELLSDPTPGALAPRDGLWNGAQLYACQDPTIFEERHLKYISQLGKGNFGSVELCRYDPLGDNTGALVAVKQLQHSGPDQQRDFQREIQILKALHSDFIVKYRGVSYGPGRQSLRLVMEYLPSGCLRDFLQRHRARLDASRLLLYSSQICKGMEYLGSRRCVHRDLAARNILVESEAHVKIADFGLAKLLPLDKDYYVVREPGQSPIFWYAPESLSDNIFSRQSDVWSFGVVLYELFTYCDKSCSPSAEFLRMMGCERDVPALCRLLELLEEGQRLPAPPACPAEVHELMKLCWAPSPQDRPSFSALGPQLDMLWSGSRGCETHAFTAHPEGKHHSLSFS
Chain of JAK1 (P23458 whole entry): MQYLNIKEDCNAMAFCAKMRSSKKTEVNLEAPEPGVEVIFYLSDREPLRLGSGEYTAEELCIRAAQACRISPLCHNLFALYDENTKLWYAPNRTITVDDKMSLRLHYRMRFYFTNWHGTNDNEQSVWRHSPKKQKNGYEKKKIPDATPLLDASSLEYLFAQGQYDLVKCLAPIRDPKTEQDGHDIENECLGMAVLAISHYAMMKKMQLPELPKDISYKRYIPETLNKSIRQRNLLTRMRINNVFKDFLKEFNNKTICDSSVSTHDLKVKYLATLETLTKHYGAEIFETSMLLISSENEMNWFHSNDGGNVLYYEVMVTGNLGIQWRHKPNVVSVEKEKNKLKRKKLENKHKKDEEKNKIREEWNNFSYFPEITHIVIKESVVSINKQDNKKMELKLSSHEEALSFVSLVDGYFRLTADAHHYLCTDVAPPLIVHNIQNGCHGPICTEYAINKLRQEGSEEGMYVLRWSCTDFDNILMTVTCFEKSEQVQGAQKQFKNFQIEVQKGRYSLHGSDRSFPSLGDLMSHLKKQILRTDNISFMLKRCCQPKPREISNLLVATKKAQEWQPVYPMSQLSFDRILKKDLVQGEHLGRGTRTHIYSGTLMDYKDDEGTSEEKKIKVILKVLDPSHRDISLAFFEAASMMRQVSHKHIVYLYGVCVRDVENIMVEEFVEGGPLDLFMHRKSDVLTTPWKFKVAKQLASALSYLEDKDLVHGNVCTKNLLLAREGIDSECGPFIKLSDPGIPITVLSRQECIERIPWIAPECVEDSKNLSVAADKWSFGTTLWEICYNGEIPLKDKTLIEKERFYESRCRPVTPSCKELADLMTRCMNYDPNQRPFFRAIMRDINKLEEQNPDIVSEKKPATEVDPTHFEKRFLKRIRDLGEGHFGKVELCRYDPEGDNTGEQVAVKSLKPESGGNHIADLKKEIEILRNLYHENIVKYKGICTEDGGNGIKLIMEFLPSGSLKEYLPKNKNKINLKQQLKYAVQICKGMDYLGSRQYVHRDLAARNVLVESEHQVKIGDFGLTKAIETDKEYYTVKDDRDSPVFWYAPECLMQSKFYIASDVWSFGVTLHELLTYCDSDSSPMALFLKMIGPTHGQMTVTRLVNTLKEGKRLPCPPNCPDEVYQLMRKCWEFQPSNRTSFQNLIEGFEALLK

What is called IC50 is the concentration at which inhibition is half-maximal. As to `COc1nsc(NC(=O)N2C[C@H]3C[C@H](N(C)c4c(C#N)cnc5[nH]ccc45)C[C@H]3C2)n1` [Compound H07, (3aR,5s,6aS)-4-({2-[(3-methoxy-1,2,4-thiadiazole-5-yl)carbamoyl]-hexahydrocyclopenta[c]pyrrole-5-yl}-methyl-amino)-1H-pyrrolo[2,3-b]pyridin-5-carbonitrile], the IC50 at hERG potassium channel was over 30 µM; in the assay with TF-1 cell it was 0.073 µM.
On to `C[C@@H]1CCN(C(=O)CC#N)C[C@@H]1N(C)c1c(C#N)cnc2[nH]ccc12` [Compound H11, 4-{[(3R,4R)-1-(2-cyanoacetyl)-4-methylpiperidin-3-yl]-methyl-amino}-1H-pyrrolo[2,3-b]pyridin-5-carbonitrile], for which the IC50 with TF-1 cell was determined as 0.68 µM; against JAK3 it was 77 nM; against JAK1, 1.28 nM; against JAK2, 9.86 nM. The JAK2/JAK1 on JAK1 is 7.70.
Regarding `N#Cc1cnc2[nH]ccc2c1N[C@H]1C[C@@H](NS(=O)(=O)CCC(F)(F)F)C1` [Compound H12, (cis)-4-{[3-(3,3,3-trifluoropropanesulfonamido)-cyclobutyl-1-yl]-amino}-1H-pyrrolo[2,3-b]pyridin-5-carbonitrile], the IC50 on hERG potassium channel was over 30 µM; in the assay on TF-1 cell it was 1.67 µM; against JAK3, 66 nM; at JAK1, 0.56 nM; at JAK2, 7.63 nM.
`CCCS(=O)(=O)N[C@H]1C[C@@H](N(C)c2c(C#N)cnc3[nH]ccc23)C1` [Compound H14, (cis)-4-{[3-(propanesulfonamido)-cyclobutyl-1-yl]-methyl-amino}-1H-pyrrolo[2,3-b]pyridin-5-carbonitrile]: the IC50 on hERG potassium channel was over 30 µM; in the assay with TF-1 cell, 0.63 µM; at JAK3, 34.2 nM; against JAK1, 1.78 nM; on JAK2 it was 9.95 nM. For the same compound, the JAK2/JAK1 on JAK1 was 5.59.
For `CN(c1c(C#N)cnc2[nH]ccc12)[C@H]1C[C@@H](NS(=O)(=O)CCC(F)(F)F)C1` [Compound H15, (cis)-4-{[3-(3,3,3-trifluoropropanesulfonamide)-cyclobutyl-1-yl]-methyl-amino}-1H-pyrrolo[2,3-b]pyridin-5-carbonitrile], the half-inhibitory concentration (IC50) with TF-1 cell came to 0.073 µM; at JAK3, 244 nM; against JAK1, 2.36 nM; at JAK2 it was 16.6 nM. Further, the JAK2/JAK1 at JAK1 came to 7.03.
For `CN(c1c(C#N)cnc2[nH]ccc12)[C@H]1C[C@@H]2CN(C(=O)NCC(F)(F)F)C[C@@H]2C1` [Compound H22, (3aR,5s,6aS)-4-({2-[(2,2,2-trifluoroethyl)-carbamoyl]-hexahydrocyclopenta[c]pyrrole-5-yl}-methyl-amino)-1H-pyrrolo[2,3-b]pyridin-5-carbonitrile], in that order: 1.76 µM, 58 nM, 0.35 nM, 5.8 nM and 16.40.
In the case of `CN(c1c(C#N)cnc2[nH]ccc12)[C@H]1C[C@@H]2CN(C(=O)Nc3ccc(Cl)c(C(F)(F)F)c3)C[C@@H]2C1` [Compound H25, (3aR,5s,6aS)-N-(4-chloro-3-(trifluoromethyl)phenyl)-5-((5-cyano-1H-pyrrolo[2,3-b]pyridin-4-yl)(methyl)amino)hexahydrocyclopentadiene[c]pyrrole-2(1H)-carboxamide], the IC50 was over 30 µM on hERG potassium channel; 0.73 µM in the assay with TF-1 cell; 58 nM against JAK3; 0.56 nM against JAK1; 6.7 nM against JAK2. In addition, the JAK2/JAK1 on JAK1 is reported as 11.96.
Consider `COc1nsc(NC(=O)N[C@H]2C[C@@H](N(C)c3c(C#N)cnc4[nH]ccc34)C2)n1` [Compound H29, (cis)-1-(3-((5-cyano-1H-pyrrolo[2,3-b]pyridin-4-yl)(methyl)amino)cyclobutyl)-3-(3-methoxy-1,2,4-thiadiazole-5-yl)urea], for which the IC50 with TF-1 cell is 0.87 µM; against JAK3, 60 nM; against JAK1, 0.36 nM; on JAK2 it was 6.8 nM. Further, the JAK2/JAK1 at JAK1 is 18.89.
`CC(C)c1nsc(NC(=O)N2C[C@H]3C[C@H](N(C)c4c(C#N)cnc5[nH]ccc45)C[C@H]3C2)n1` [Compound H30, (3aR,5s,6aS)-4-({2-[(3-isopropyl-1,2,4-thiadiazole-5-yl)carbamoyl]-hexahydrocyclopenta[c]pyrrole-5-yl}-methyl-amino)-1H-pyrrolo[2,3-b]pyridin-5-carbonitrile]: the IC50 is over 30 µM at hERG potassium channel; 1.23 µM in the assay with TF-1 cell; 76 nM at JAK3; 0.57 nM against JAK1; 6.4 nM against JAK2. Also, the JAK2/JAK1 on JAK1 is 11.23.
For `CN(C)c1nsc(NC(=O)N2C[C@H]3C[C@H](N(C)c4c(C#N)cnc5[nH]ccc45)C[C@H]3C2)n1` [Compound H33, (3aR,5s,6aS)-4-({2-[(3-dimethylamino-1,2,4-thiadiazole-5-yl)carbamoyl]-hexahydrocyclopenta[c]pyrrole-5-yl}-methyl-amino)-1H-pyrrolo[2,3-b]pyridin-5-carbonitrile], the 50% inhibitory concentration (IC50) with TF-1 cell was 1.1 µM; against JAK3 it was 40 nM; at JAK1, 0.65 nM; on JAK2, 5.7 nM. The JAK2/JAK1 on JAK1 worked out at 8.77.
For `N#Cc1cnc2[nH]ccc2c1N1CC2CN(C(=O)NCC(F)(F)F)CC21` (centres unmarked) [Compound H39, 6-(5-cyano-1H-pyrrolo[2,3-b]pyridin-4-yl)-N-(2,2,2-trifluoroethyl)-3,6-diazabicyclo[3.2.0]heptane-3-carboxamide], the IC50 at hERG potassium channel is over 30 µM; in the assay on TF-1 cell it was 0.69 µM; against JAK3 it was 150 nM; against JAK1, 0.35 nM; against JAK2 it was 21 nM. Moreover, the JAK2/JAK1 at JAK1 turned out to be 60.00.
`CN(c1c(C#N)cnc2[nH]ccc12)[C@H]1C[C@@H]2CN(C(=O)Nc3nc(OCC(C)(C)N)ns3)C[C@@H]2C1` [Compound H44, (3aR,5s,6aS)-5-((5-cyano-1H-pyrrolo[2,3-b]pyridin-4-yl)(methyl)amino)-N-(3-(2-amino-2-methyl-propoxy)-1,2,4-thiadiazole-5-yl)hexahydrocyclopentadiene[c]pyrrole-2(1H)-carboxamide]: the IC50 was over 30 µM at hERG potassium channel; 0.73 µM in the assay on TF-1 cell; 80 nM against JAK3; 0.67 nM against JAK1; 15.6 nM on JAK2. Also, at JAK1, the JAK2/JAK1 was 23.28.
